Earlier results on one molecule are cited in patent US20140212465A1, “TREATMENT AND PREVENTION OF DENTAL PATHOLOGY IN HUMANS AND NON-HUMAN ANIMALS” (priority 2011, published 2014).

For the series the following is noted: aqueous environment.

SMILES strings stand for the structures.

For the molecule `[Ca+2].[OH-].[OH-]` [calcium hydroxide], the pH was 12.5.
